Assay results reported in US4528287A, “6-Fluoro-1, 4-dihydro-4-oxo-7-substituted piperazinylquinoline-3-carboxylic acids and the method for preparing the same” (priority 1983, dated 1985).
Converted amounts (≈) assume the structure as drawn. Like-named read-outs stand apart in the source and are kept apart here.

Columns and labels:
[1] = system: Serratia marcescens IAM1184; assay: MIC, twofold agar dilution; assay type: cell-based; settings: Gram -, 10^6 cells/ml, 18 hrs, 37° C., read-out: Minimum inhibitory concentration (MIC)
Procedure: (§1) Minimum inhibitory concentrations (MIC) were determined by the twofold agar dilution method (Chemotherapy, 29(1), 76(1981)). Overnight cultures in Mueller-Hinton broth were suspended by buffered saline gelatine. One loopful of the bacterial suspension (10^6 or 10^8 colony-forming units/ml) was incubated onto the test compound-containing plates. The plates were incubated for 18 hrs. at 37° C. The MIC was the lowest concentration of the drug that inhibited visible growth.

[2] = system: Staphylococcus aureus MS-353; assay: MIC, twofold agar dilution; assay type: cell-based; settings: MS353, Gram +, 10^6 cells/ml, 18 hrs, 37° C., read-out: Minimum inhibitory concentration (MIC)
Procedure: as §1

[3] = system: Streptococcus pyogenes Cook; assay: MIC, twofold agar dilution; assay type: cell-based; settings: Gram +, 10^6 cells/ml, 18 hrs, 37° C., read-out: Minimum inhibitory concentration (MIC)
Procedure: as §1

[4] = system: Salmonella schottmulleri 0006; assay: MIC, twofold agar dilution; assay type: cell-based; settings: Gram -, 10^6 cells/ml, 18 hrs, 37° C., read-out: Minimum inhibitory concentration (MIC)
Procedure: as §1

[5] = system: Staphylococcus aureus FAD208PJC-1; assay: MIC, twofold agar dilution; assay type: cell-based; settings: FAD208PJC1, Gram +, 10^6 cells/ml, 18 hrs, 37° C., read-out: Minimum inhibitory concentration (MIC)
Procedure: as §1

[6] = system: Escherichia coli K-12 C600; assay: MIC, twofold agar dilution; assay type: cell-based; settings: K12C600, Gram -, 10^6 cells/ml, 18 hrs, 37° C., read-out: Minimum inhibitory concentration (MIC)
Procedure: as §1

[7] = system: Enterobacter cloaceas 963; assay: MIC, twofold agar dilution; assay type: cell-based; settings: Gram -, 10^6 cells/ml, 18 hrs, 37° C., read-out: Minimum inhibitory concentration (MIC)
Procedure: as §1

[8] = system: Salmonella typhimurium IID 971; assay: MIC, twofold agar dilution; assay type: cell-based; settings: Salmonella enterica; Gram -; 10^6 cells/ml; 18 hrs, 37° C.; read-out: Minimum inhibitory concentration (MIC)
Procedure: as §1

Salmonella typhi 901 = assay: MIC, twofold agar dilution; assay type: cell-based; settings: Salmonella enterica, 18 h, read-out: Minimum inhibitory concentration (MIC)
Procedure: as §1

[9] = system: Pseudomonas aeruginosa PAO7; assay: MIC, twofold agar dilution; assay type: cell-based; settings: Gram -, 10^6 cells/ml, 18 hrs, 37° C., read-out: Minimum inhibitory concentration (MIC)
Procedure: as §1

[10] = system: Klebsiella pneumoniae PCI-602; assay: MIC, twofold agar dilution; assay type: cell-based; settings: read-out: Minimum inhibitory concentration (MIC)
Procedure: as §1

[11] = system: Bacillus subtilis ATCC6633; assay: MIC, twofold agar dilution; assay type: cell-based; settings: Gram +, 10^6 cells/ml, 18 hrs, 37° C., read-out: Minimum inhibitory concentration (MIC)
Procedure: as §1

[12] = system: Enterobacter aerogenes ATCC13048; assay: MIC, twofold agar dilution; assay type: cell-based; settings: Klebsiella aerogenes, Gram -, 10^6 cells/ml, 18 hrs, 37° C., read-out: Minimum inhibitory concentration (MIC)
Procedure: as §1

[13] = system: Escherichia coli NIHJ-JC-2; assay: MIC, twofold agar dilution; assay type: cell-based; settings: NIHJJC2, Gram -, 10^6 cells/ml, 18 hrs, 37° C., read-out: Minimum inhibitory concentration (MIC)
Procedure: as §1

[14] = system: Pseudomonas aeruginosa ATCC9027; assay: MIC, twofold agar dilution; assay type: cell-based; settings: Gram -, 10^6 cells/ml, 18 hrs, 37° C., read-out: Minimum inhibitory concentration (MIC)
Procedure: as §1

[15] = system: Staphylococcus aureus Terajima; assay: MIC, twofold agar dilution; assay type: cell-based; settings: Gram +, 10^6 cells/ml, 18 hrs, 37° C., read-out: Minimum inhibitory concentration (MIC)
Procedure: as §1

[16] = system: Salmonella paratyphi 1015; assay: MIC, twofold agar dilution; assay type: cell-based; settings: Salmonella enterica, 18 h, read-out: Minimum inhibitory concentration (MIC)
Procedure: as §1

Proteus rettgeri IFO3850 = assay: MIC, twofold agar dilution; assay type: cell-based; settings: Providencia rettgeri, Gram -, 10^6 cells/ml, 18 hrs, 37° C., read-out: Minimum inhibitory concentration (MIC)
Procedure: as §1

[17] = system: Salmonella enteritidis G14; assay: MIC, twofold agar dilution; assay type: cell-based; settings: Salmonella enterica, Gram -, 10^6 cells/ml, 18 hrs, 37° C., read-out: Minimum inhibitory concentration (MIC)
Procedure: as §1

[18] = system: Pseudomonas aeruginosa IFO3445; assay: MIC, twofold agar dilution; assay type: cell-based; settings: Gram -, 10^6 cells/ml, 18 hrs, 37° C., read-out: Minimum inhibitory concentration (MIC)
Procedure: as §1

[19] = system: Micrococcus luteus ATCC9341; assay: MIC, twofold agar dilution; assay type: cell-based; settings: Gram +, 10^6 cells/ml, 18 hrs, 37° C., read-out: Minimum inhibitory concentration (MIC)
Procedure: as §1

Proteus vulgalis OX-19 = assay: MIC, twofold agar dilution; assay type: cell-based; settings: Gram -; 10^6 cells/ml; 18 hrs, 37° C.; read-out: Minimum inhibitory concentration (MIC)
Procedure: as §1

Proteus vulgalis HX-19 = assay: MIC, twofold agar dilution; assay type: cell-based; settings: Gram -; 10^6 cells/ml; 18 hrs, 37° C.; read-out: Minimum inhibitory concentration (MIC)
Procedure: as §1

[20] = system: Proteus mirabilis IFO3849; assay: MIC, twofold agar dilution; assay type: cell-based; settings: Gram -, 10^6 cells/ml, 18 hrs, 37° C., read-out: Minimum inhibitory concentration (MIC)
Procedure: as §1

[21] = system: Pseudomonas aeruginosa NCTC10490; assay: MIC, twofold agar dilution; assay type: cell-based; settings: Gram -, 10^6 cells/ml, 18 hrs, 37° C., read-out: Minimum inhibitory concentration (MIC)
Procedure: as §1

Proteus morganii IFO3848 = assay: MIC, twofold agar dilution; assay type: cell-based; settings: Morganella morganii, Gram -, 10^6 cells/ml, 18 hrs, 37° C., read-out: Minimum inhibitory concentration (MIC)
Procedure: as §1

[22] = Urinary excretion in rats after oral dosing (bioassay with Escherichia coli NIHJ-JC-2); assay type: in vivo, SD strain); settings: rat, male SD rats, 20 mg/Kg per os, fasted 24 hr
Procedure: Male rats of SD strain, weighing 180-210 g, were used 8 animals at a group. Test compounds suspended in 0.5% carboxymethyl cellulose were administered per os to 24 hr-fasted rats at dose of 20 mg/Kg. Urine was pooled from 0 to 6 hrs. and 6 to 24 hrs, and urinary excretion was measured by bioassay using Escherichia coli NIHJ-JC-2.
The assay method employed was the cup-plate method using
Escherichia coli NIHJ-JC-2. Urine was appropriately diluted with 1/15M phosphate buffer pH7.0, before assay if necessary. Standard calibration lines were made in 1/15M phosphate buffer pH7.0.

in vivo = settings: mouse, male ddY mice, 10 days
Procedure: Male mice of ddY strain, 4 weeks old, were used with 10 animals at a group. Test compounds suspended in 0.5% carboxymethyl cellulose were administered per os (p.o.) in mice. In the case of intraveneous (i.v.) administration, test compounds were solved in 0.1N-HCl solution and neutralized with 0.1N-NaOH solution.

SMILES: CCn1cc(C(=O)O)c(=O)c2cc(F)c(N3CC(C)NC(C)C3)c(F)c21 (stereo not drawn) [Example 20]
- MIC [1]: 0.78 µg/mL (≈ 2.13 µM)
- MIC [2]: 1.56 µg/mL (≈ 4.27 µM)
- MIC [3]: 6.25 µg/mL (≈ 17.1 µM)
- MIC [4]: 0.1 µg/mL (≈ 0.274 µM)
- MIC [5]: 0.78 µg/mL (≈ 2.13 µM)
- MIC [6]: 0.2 µg/mL (≈ 0.547 µM)
- MIC [7]: 0.2 µg/mL (≈ 0.547 µM)
- MIC [8]: 0.2 µg/mL (≈ 0.547 µM)
- MIC (Salmonella typhi 901): 0.1 µg/mL (≈ 0.274 µM)
- MIC [9]: 3.13 µg/mL (≈ 8.57 µM)
- MIC ([10]; PCI602, Gram -, 10^6 cells/ml, 18 hrs, 37° C.): 0.2 µg/mL (≈ 0.547 µM)
- MIC [11]: 0.2 µg/mL (≈ 0.547 µM)
- MIC [12]: 0.2 µg/mL (≈ 0.547 µM)
- MIC [13]: 0.39 µg/mL (≈ 1.07 µM)
- MIC [14]: 0.2 µg/mL (≈ 0.547 µM)
- MIC [15]: 1.56 µg/mL (≈ 4.27 µM)
- MIC [16]: 0.1 µg/mL (≈ 0.274 µM)
- MIC (Proteus rettgeri IFO3850): 0.39 µg/mL (≈ 1.07 µM)
- MIC [17]: 0.39 µg/mL (≈ 1.07 µM)
- MIC [18]: 3.13 µg/mL (≈ 8.57 µM)
- MIC [19]: 12.5 µg/mL (≈ 34.2 µM)
- MIC (Proteus vulgalis OX-19): 0.1 µg/mL (≈ 0.274 µM)
- MIC (Proteus vulgalis HX-19): 0.2 µg/mL (≈ 0.547 µM)
- MIC [20]: 1.56 µg/mL (≈ 4.27 µM)
- MIC [21]: 0.78 µg/mL (≈ 2.13 µM)
- MIC (Proteus morganii IFO3848): 0.2 µg/mL (≈ 0.547 µM)

SMILES: CCn1cc(C(=O)O)c(=O)c2cc(F)c(N3CCNC(C)C3)c(F)c21 (stereo not drawn) [Example 4, 1-Ethyl-6,8-difluoro-1,4-dihydro-7-(3-methyl-1-piperazinyl)-4-oxoquinoline-3-carboxylic acid]
- concentration at 6 h ([22]; urine 0-6 hr, read-out: Drug Concentration in Urine 0-6 (hr)): 659 µg/mL
- dose excreted at 24 h ([22]; urine 0-24 hr, read-out: Rate of Urinary Excretion 0-24 (hr)): 75%
- concentration at 24 h ([22]; urine 6-24 hr, read-out: Drug Concentration in Urine 6-24 (hr)): 87 µg/mL
- MIC [1]: 0.1 µg/mL (≈ 0.285 µM)
- MIC [2]: 0.78 µg/mL (≈ 2.22 µM)
- MIC [3]: 3.13 µg/mL (≈ 8.91 µM)
- MIC [4]: 0.025 µg/mL (≈ 0.0712 µM)
- MIC [5]: 0.38 µg/mL (≈ 1.08 µM)
- MIC [6]: 0.05 µg/mL (≈ 0.142 µM)
- MIC [7]: 0.1 µg/mL (≈ 0.285 µM)
- MIC [8]: 0.05 µg/mL (≈ 0.142 µM)
- MIC (Salmonella typhi 901): 0.0125 µg/mL (≈ 0.0356 µM)
- MIC [9]: 1.56 µg/mL (≈ 4.44 µM)
- MIC ([10]; PCI602, 18 h): 0.0125 µg/mL (≈ 0.0356 µM)
- MIC [11]: 0.1 µg/mL (≈ 0.285 µM)
- MIC [12]: 0.1 µg/mL (≈ 0.285 µM)
- MIC [13]: 0.05 µg/mL (≈ 0.142 µM)
- MIC [14]: 0.05 µg/mL (≈ 0.142 µM)
- MIC [15]: 0.78 µg/mL (≈ 2.22 µM)
- MIC [16]: 0.025 µg/mL (≈ 0.0712 µM)
- MIC (Proteus rettgeri IFO3850): 0.05 µg/mL (≈ 0.142 µM)
- MIC [17]: 0.05 µg/mL (≈ 0.142 µM)
- MIC [18]: 0.78 µg/mL (≈ 2.22 µM)
- MIC [19]: 6.25 µg/mL (≈ 17.8 µM)
- MIC (Proteus vulgalis OX-19): 0.05 µg/mL (≈ 0.142 µM)
- MIC (Proteus vulgalis HX-19): 0.025 µg/mL (≈ 0.0712 µM)
- MIC [20]: 0.2 µg/mL (≈ 0.569 µM)
- MIC [21]: 0.78 µg/mL (≈ 2.22 µM)
- MIC (Proteus morganii IFO3848): 0.025 µg/mL (≈ 0.0712 µM)
- LD50 at 240 h (in vivo; iv, i.v., read-out: LD50 i.v. (95% Confidence Limit)): 246 mg/kg
- LD50 at 240 h (in vivo; po, p.o., read-out: LD50 p.o.): > 4000 mg/kg
